Reference: US20100261751A1, “METHOD FOR D[…] OF THE TWO HUMAN IMMUNODEFICIENCY VIRUS (HIV) INTEGRASE ENZYMATIC […]” (priority 2007, published 2010)

Biological target: T1, HIV integrase (Human immunodeficiency virus type 1 group M subtype B, UniProt P04585)
T1 construct: stored proteins (integrase, wt, 49 μM in)
Assay: 3dQ assay: HIV integrase 3′-end processing fluorescence in vitro assay
Format: biochemical
Conditions: dose response, FIG. 1

T1 sequence (O75475 whole entry, other chains not shown): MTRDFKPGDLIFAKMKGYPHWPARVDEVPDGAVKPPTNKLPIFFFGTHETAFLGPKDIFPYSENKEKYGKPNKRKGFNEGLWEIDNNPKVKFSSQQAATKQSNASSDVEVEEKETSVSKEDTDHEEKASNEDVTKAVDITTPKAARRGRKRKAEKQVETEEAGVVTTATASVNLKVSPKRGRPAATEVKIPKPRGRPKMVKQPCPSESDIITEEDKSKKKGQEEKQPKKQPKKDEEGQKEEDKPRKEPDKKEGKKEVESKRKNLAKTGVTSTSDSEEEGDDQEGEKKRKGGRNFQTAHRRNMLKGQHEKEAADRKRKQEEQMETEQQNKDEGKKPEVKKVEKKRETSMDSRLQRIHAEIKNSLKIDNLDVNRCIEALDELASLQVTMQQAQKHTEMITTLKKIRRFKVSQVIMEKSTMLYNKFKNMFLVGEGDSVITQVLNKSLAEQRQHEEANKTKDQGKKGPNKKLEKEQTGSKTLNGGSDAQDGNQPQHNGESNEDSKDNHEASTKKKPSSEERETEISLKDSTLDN

## O=C(O)C(=O)CC(=O)c1cccn1Cc1ccc(F)cc1 [L731,988]
  inhibition of 3′-end processing (result in words): only showed a weak response
